# Data as given in patent US12583852B2, “Heterocycle derivative” (JW PHARMACEUTICAL CORPORATION, priority 2018, dated 2026).
# System: human dermal papilla cells
# Assay: Promotion of proliferation of human dermal papilla cells (CellTiter-Glo Luminescent cell viability assay)
# Type: cell-based
# Settings: human dermal papilla cells (ScienCell, 2499); drug 0 to 30 μM; 48 hours; CellTiter-Glo luminescence; compared to DMSO-treated control group
# Procedure: The effect of promoting cell proliferation by the drug was analyzed using human dermal papilla cells (ScienCell, 2499). Human dermal papilla cells cultured using Mesenchymal Stem Cell Medium (ScienCell, 7501) medium were seeded at a density of 3×10^3 cells/well and in a volume of 100 μl in a 96-well plate, incubated overnight at 37° C. and 5% CO2, treated with the drug at different concentrations ranging from 0 to 30 μM in a volume of 100 μL, and incubated at 37° C. and 5% CO2 for 48 hours. CellTiter-Glo Luminescent cell viability assay was performed according to the manufacturer's protocol (Promega, G7573) to detect cell proliferation. Luminescence was measured using an Envision 2102 multilabeled reader (PerkinElmer) equipment, and the cell proliferation rate was analyzed by the activity of the drug-treated group compared to the DMSO-treated group (control group), which is a solvent of the drug.
row,SMILES,Maximum DP cell proliferation (%)
1,"Fc1cc2c(-c3ccccc3)n[nH]c2nc1Nc1cccc2c1CCC2 [Example 109, 5-fluoro-N-indan-4-yl-3-phenyl-1H-pyrazolo[3,4-b]pyridin-6-amine]",3.6
2,"Nc1n[nH]c2nc(Nc3cccc4c3CCC4)ncc12 [Example 112, N6-(2,3-dihydro-1H-inden-4-yl)-1H-pyrazolo[3,4-d]pyrimidine-3,6-diamine]",2
3,"Nc1n[nH]c2nc(Nc3cccc(C(F)F)c3F)ncc12 [Example 115, N6-(3-(difluoromethyl)-2-fluorophenyl)-1H-pyrazolo[3,4-d]pyrimidine-3,6-diamine]",3.7
4,"Nc1n[nH]c2nc(Nc3cccc4c3CCC4)nc(Cl)c12 [Example 116, 4-chloro-N6-indan-4-yl-3a,4-didehydro-1H-pyrazolo[3,4-d]pyrimidine-3,6-diamine]",5.9
5,"Nc1n[nH]c2nc(Nc3cccc(C(F)(F)F)c3F)ncc12 [Example 117, N6-[2-fluoro-3-(trifluoromethyl)phenyl]-1H-pyrazolo[3,4-d]pyrimidine-3,6-diamine]",6.7
6,"Fc1cc2c(Br)n[nH]c2nc1Nc1c(Br)cc(Br)c2c1CCC2 [Example 119, 3-bromo-N-(5,7-dibromoindan-4-yl)-5-fluoro-1H-pyrazolo[3,4-b]pyridin-6-amine]",1.3
7,"O/N=N\c1n[nH]c2nc(Nc3cccc4c3CCC4)c(F)cc12 [Example 122, (Z)-N-(2,3-dihydro-1H-inden-4-yl)-5-fluoro-3-(hydroxydiazenyl)-1H-pyrazolo[3,4-b]pyridin-6-amine]",5.3
